Target: PAICS (Homo sapiens, UniProt P22234)
Details: can reach; biochemical enzyme activity and cell biology experiments

Sequence of PAICS (P22234 whole entry): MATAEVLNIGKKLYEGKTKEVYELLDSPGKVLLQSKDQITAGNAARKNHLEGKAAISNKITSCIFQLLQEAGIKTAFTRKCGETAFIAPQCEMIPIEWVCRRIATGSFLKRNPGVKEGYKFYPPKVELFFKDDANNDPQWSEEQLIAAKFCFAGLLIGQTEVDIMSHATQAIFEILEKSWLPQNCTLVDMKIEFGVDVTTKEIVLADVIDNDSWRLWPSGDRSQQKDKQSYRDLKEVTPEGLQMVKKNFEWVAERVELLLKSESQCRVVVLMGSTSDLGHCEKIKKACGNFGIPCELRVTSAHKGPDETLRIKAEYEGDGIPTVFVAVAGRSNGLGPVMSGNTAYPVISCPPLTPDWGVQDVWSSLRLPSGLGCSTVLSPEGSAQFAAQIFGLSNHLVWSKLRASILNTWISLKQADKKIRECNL

inhibition ratio against SAICAR accumulation: 71.1%
SMILES: NCCCNCCCCNCCCN [spermine, Spermine]
